Measured values taken from patent publication US20220356525A1, “METHODS OF DETERMINING WHETHER PATIENTS SUFFERING FROM ACUTE MYELOID LEUKEMIA WILL ACHIEVE A RESPONSE TO AN MYC-TARGETING THERAPY” (INSERM (INSTITUT NATIONAL DE LA SANTÉ ET DE LA RECHERCHE …, priority 2019, published 2022).

Columns and labels:
CDK7 = CDK7 (Homo sapiens, UniProt P50613); conditions: Table 1, Kwiatkowski et al. (2014); cited from earlier work
[1] = test system: AML cell lines (KG1a, IMS-M2, and U937); test: AML cell line sensitivity to BET/CDK7 inhibitors in standard versus nutrient-deprived (folic acid-starved) media; type: cell-based, human; conditions: folic acid withdrawal
From the text: BET proteins interact with acetylated histones in active regulatory domains (promoters and enhancers) and promote RNA PolII activity. Despite the general nature of this mechanism, BET inhibitors have shown selective effects on gene expression through suppression of […] and MYC-related transcriptional programs (8, 11, 12). Two cohorts of AML patients (TCGA-LAML, n=198 and GSE14468, n=526) were queried with multiple gene sets related to MYC transcriptional programs as well as vitamin, amino acid, and nucleotide metabolism using single sample Gene Set Enrichment Analysis (ssGSEA). Correlation between gene sets was queried across all patients from each cohort to pinpoint potential crosstalk between active MYC programs and specific metabolic pathways (data not shown).
(§1) To investigate further the relationship between folic acid starvation and increased BET inhibitor resistance, we compiled a panel of AML cell lines harboring diverse genetic alterations. […] The effect of folic acid removal was also evaluated in cell lines treated either with a second BET inhibitor, JQ1, or with THZ-1, a covalent inhibitor of CDK7, another key factor in transcriptional elongation at super-enhancer regions and a strong inhibitor of MYC expression (data not shown). […] Therefore, we studied selective suppression of BRD4 by short hairpin RNA (shRNA) in two AML cell lines.

[2] = test system: KG1a, U937 and IMS-M2 cells; test: OTX015 sensitivity with SAH supplementation; type: cell-based, human
From the text: We next used metabolism profiling to characterize the effect of folate pathway alteration on global cell metabolism in U937 cells. […] ShRNA-mediated MTHFR depletion induced a similar increase in SAH levels as that observed upon folate withdrawal in AML cell lines U937 and IMS-M2 (data not shown).

[3] = test system: MLL-translocated primary patient samples with AML; test: OTX015 sensitivity of primary AML patient samples; type: cell-based, human; conditions: 50 μM 5-CH3 THF; three patient samples with altered MTHFR genotype
Description: (§2) Error bars represent mean±SD.
as §1
Previous studies have extensively characterized two common MTHFR genetic variants, C677T and A1298C, encoding MTHFR enzyme variants with reduced activity, resulting in hyperhomocysteinemia in human carriers. In particular, the homozygous variant 677 TT and 1298 CC genotypes are present in ˜10% of Caucasians and display only 30% and 60% of the homozygous wild-type 677 CC and 1298 AA enzyme activities, respectively (16, 17). […] Five KG1a clones either 1) wild-type 677 CC and 1298 AA, 2) heterozygous 677 CT or 1298 AC, or 3) homozygous 677 TT or 1298 CC, were selected and genotyped via allelic discrimination technique (FIG. 1A). […] Finally, we engineered a tractable MLL-AF9-driven mouse model of AML in which Mtfhr genotype status was either homozygous wild-type, heterozygous or homozygous knockout.

[4] = test system: CRISPR/Cas9-edited KG1a clones; test: OTX015 sensitivity and colony formation of CRISPR/Cas9-edited KG1a clones with MTHFR variants; type: cell-based, human; conditions: 50 μM 5-CH3 THF; 677 TT or 1298 CC clones versus wild-type
From the text: Error bars represent mean±SD. Experiment performed at least two independent times.
as §2
Additional information is provided in the supplementary material and methods section.
Finally, we engineered a tractable MLL-AF9-driven mouse model of AML in which Mtfhr genotype status was either homozygous wild-type, heterozygous or homozygous knockout.

IMS-M2 and U937 cells = conditions: 50 μM 5-CH3 THF; MTHFR-directed shRNAs
MLL-AF9-driven AML cells = test: MLL-AF9-driven AML mouse models treated with JQ1; type: in vivo, mice
Description: (E) MLL-AF9-transformed GFP-positive granulomonocytic progenitors (Sca-1^−/c-KIT^+/CD16/32^+/CD34^+/MPO^+) from homozygous wild-type […], or heterozygous (+/−) and homozygous (−/−) Mthfr knockout mice transplanted into sublethally-irradiated recipient mice before treatment with vehicle or 50 mg/kg JQ1 for 7 days. Proportion of GFP-positive MLL-AF9 leukemic cells in bone marrow from five mice per group. p-value by Mann-Whitney test. n.s, nonsignificant (p>0.05). Error bars represent mean±SD.
The French National Committee on Animal Care reviewed and approved all mouse experiments. Sample size was influenced by historical penetrance and consistency of MLL-AF9-driven in vivo models. For the Mthfr knockout AML mouse model, BALB/cJ mice were purchased from Charles River Laboratories. Each recipient mouse was transplanted with transduced Scal^−/c-Kit^+ myeloid progenitors sorted from the total bone marrow of three donor mice. Approximatively two months post-transplantation, sick mice were euthanized and bone marrow harvested before flow-based sorting of MLL-AF9-positive granulo-monocytic bone marrow progenitor population (GFP^+/Sca-1^−/c-Kit^+/Cd16/32^+/Cd34^+) and PCR-based confirmation of Mthfr knockout status. 0.2×10^6 MLL-AF9-positive Mthfr^+/+, Mthfr^+/−, and Mthfr^−/− cells were then reinjected into sublethally-irradiated secondary recipient mice treated daily by intraperitoneal injection with 50 mg/kg JQ1 (10% DMSO+90% G5W).
For folate starvation experiments, 5-week old male C57BL/6J mice were given regular or folate-deficient casein-reconstituted diet (Safe-Diets) for 4 weeks before sublethal irradiation (350cGy) and injection with 0.2×10^6 MLL-AF9-positive L-GMP cells before treatment with 35 mg/kg or 50 mg/kg JQ1 (10% DMSO+90% G5W) for 7 days. For Mthfr knockdown experiments, MLL-AF9-positive L-GMP cells were infected with a control or two Mthfr-directed shRNAs cloned into an MSCV-miRE-SV40-eBFP vector modified from the MSCV-miRE_shBRD9_561-SV40-GFP vector (Addgene, #75139) by substitution of the GFP cassette with an eBFP fluorescent marker. 0.2×10^6 infected cells were injected into sublethally-irradiated 5-week old C57BL/6J recipient mice. Additional information is provided in the supplementary material and methods section.

OCI-AML2 cells = test: Pooled CRISPR/Cas9 epigenetic screen with JQ1; type: cell-based, human
Description: OCI-AML2 cells were seeded into six-well plates at a density of 3×10^6 cells per well and transduced at MOI 0.2. […] 24 hours post-transduction, cells were replated into puromycin-containing media. A sample was collected at 48 hours post-puromycin to confirm library coverage in the transduced population. Transduced cells were expanded in puromycin for 10 days before drug, when the transduced population was split into vehicle (DMSO) and JQ1 conditions and maintained for two weeks. Deep sequencing was performed by Hudson Alpha Institute for Biotechnology on an Illumina Nextseq platform (75 bp, single-ended) to identify differences in library composition. Additional information is provided in the supplementary material and methods section.

BRD4 = BRD4 (Homo sapiens, UniProt O60885); conditions: previous studies; cited from earlier work

CDK7, sequence (P50613 whole entry): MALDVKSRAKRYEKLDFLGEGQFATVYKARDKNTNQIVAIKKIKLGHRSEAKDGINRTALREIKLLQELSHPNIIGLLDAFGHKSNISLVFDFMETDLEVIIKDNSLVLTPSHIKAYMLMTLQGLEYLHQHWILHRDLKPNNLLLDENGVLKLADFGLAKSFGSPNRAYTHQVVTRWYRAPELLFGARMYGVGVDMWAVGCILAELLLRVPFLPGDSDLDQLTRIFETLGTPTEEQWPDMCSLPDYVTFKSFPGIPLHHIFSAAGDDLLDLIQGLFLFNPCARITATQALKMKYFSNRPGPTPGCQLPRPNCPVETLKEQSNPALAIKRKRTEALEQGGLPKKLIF
CDK7, sequence (P51946 whole entry partner): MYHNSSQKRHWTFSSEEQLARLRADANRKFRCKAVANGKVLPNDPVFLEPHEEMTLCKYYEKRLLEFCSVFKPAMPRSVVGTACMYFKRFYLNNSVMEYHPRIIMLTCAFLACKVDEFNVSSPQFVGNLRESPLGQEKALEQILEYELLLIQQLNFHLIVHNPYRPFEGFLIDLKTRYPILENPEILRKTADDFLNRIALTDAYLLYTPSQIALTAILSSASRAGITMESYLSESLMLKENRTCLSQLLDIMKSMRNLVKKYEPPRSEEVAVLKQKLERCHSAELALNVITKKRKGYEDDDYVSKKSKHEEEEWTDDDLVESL

CN1CC[C@H](c2c(O)cc(O)c3c(=O)cc(-c4ccccc4Cl)oc23)[C@H](O)C1 [flavopiridol]
inhibitory activity toward CDK7 relative to other CDKs (CDK7): lower inhibitory activity toward CDK7 than toward at least one other CDK

CN(C)C/C=C/C(=O)Nc1ccc(C(=O)Nc2cccc(Nc3ncc(Cl)c(-c4c[nH]c5ccccc45)n3)c2)cc1 [THZ-1]
AML cell line sensitivity [1]: significantly dampened

CC(C)CC(=O)Nc1[nH]nc2c1CN(C(=O)C1CCN(C)CC1)C2(C)C [PHA-793887]
inhibitory activity toward CDK7 relative to other CDKs (CDK7): lower inhibitory activity toward CDK7 than toward at least one other CDK

CC[C@H](CO)Nc1nc(NCc2ccccc2)c2ncn(C(C)C)c2n1 [Roscovitine]
inhibitory activity toward CDK7 relative to other CDKs (CDK7): lower inhibitory activity toward CDK7 than toward at least one other CDK

Nc1ncnc2c1ncn2[C@@H]1O[C@H](CSCC[C@H](N)C(=O)O)[C@@H](O)[C@H]1O [SAH, S-adenosylhomocysteine]
cytoprotective effect of SAH against OTX015 ([2]; methionine depleted 300-fold, IMS-M2 cells): enhanced the cytoprotective effect of SAH against OTX015
resistance to OTX015 with SAH ([2]; methionine depleted, U937 and KG1a cells): even greater resistance to OTX015 than folate restriction alone

CN1c2c(nc(N)[nH]c2=O)NCC1CNc1ccc(C(=O)N[C@@H](CCC(=O)O)C(=O)O)cc1 (stereo partly drawn) [5-CH3 THF, 5-methyltetrahydrofolate]
effect on response to OTX015 (IC90, 5 days) [3]: sensitized to OTX015
effect on response to OTX015 (fold change of IC50, 5 days) [4]: substantially enhanced response to OTX015
effect on cytotoxicity of OTX015 (fold change of IC50, 5 days) (IMS-M2 and U937 cells): restored a cytotoxic effect of OTX015

Cc1sc2c(c1C)C(c1ccc(Cl)cc1)=N[C@@H](CC(=O)OC(C)(C)C)c1nnc(C)n1-2 [JQ1, tert-butyl 2-[(9S)-7-(4-chlorophenyl)-4,5,13-trimethyl-3-thia-1,8,11,12-tetrazatricyclo[8.3.0.02,6]trideca-2(6),4,7,10,12-pentaen-9-yl]acetate]
AML cell line sensitivity [1]: significantly dampened
leukemic burden (MLL-AF9-driven AML cells; animals transplanted with Mthfr-depleted (shRNA) blasts, JQ1 treatment): not significantly decreased
sensitivity of leukemic burden to JQ1 (MLL-AF9-driven AML cells; control shRNA counterparts): striking sensitivity
sensitivity to JQ1 (GFP-positive MLL-AF9 leukemic cells in bone marrow) (MLL-AF9-driven AML cells; loss of a single copy of Mthfr, 50 mg/kg JQ1 for 7 days): sufficient to attenuate sensitivity
anti-leukemic activity (MLL-AF9-driven AML cells; mice fed no folate diet versus regular diet): markedly attenuated
overall survival after JQ1 treatment (MLL-AF9-driven AML cells; mice injected with Mthfr-depleted cells versus control leukemic cells): significantly shorter
effect of gene knockout on cells treated with JQ1 (OCI-AML2 cells; knockout of EED, EIMT1 and SETDB1, 2 weeks): rescued cells from JQ1
effect of gene knockout on cells treated with JQ1 (OCI-AML2 cells; knockout of KDMIA, JMJDIC and KDM3B): enhanced cell sensitivity to JQ1
inhibition of BRD4 (BRD4): potently inhibited
